Patent publication US6752989B1, “Tooth surface treatment agent” (3M ESPE AG, priority 1999, dated 2004)

Tested on: fluorescence-marked casein
Assay: Proteolytic pepsin activity with fluorescence-marked casein after contact with ground bovine dentine
Type: biochemical
Conditions: 2.5 ml of 10 μg/ml solution, pH 2.0 buffer, on 1 g ground bovine dentine for 20 min; excitation 480 nm, emission 510 nm
Experimental: 2.5 ml of a pepsin solution (10 μg/ml) in a 20 mM disodium hydrogen phosphate buffer (pH 2.0) were added to 1 g of ground bovine dentine and allowed to remain there for 20 min. under agitation. Subsequently the mixture was centrifuged for 1 min. in a Heraeus Biofuge Pico at 10,000 rpm. 900 μl of the residue were mixed with 12 μg of fluorescence-marked casein (Molecular Probes company, Göttingen) in 100 μl 20 mM of disodium hydrogen phosphate buffer (pH 2.0). The presence of proteolytic pepsin activity is manifested in the increase in fluorescence with an excitation wave length of 480 nm and with an emission wave length of 510 nm.

pepsin
proteolytic pepsin activity (increase in fluorescence): no pepsin activity was determinable any more
